Measured values published in patent US7723358B2, “Aroyl-O-piperidine derivatives for the treatment of diabetes-related problems” (Merck Patent GmbH, priority 2004, dated 2010).
pIC50: −log10 of the molar value.

Target: T1, microsomal triglyceride transfer protein (MTP) (Mesocricetus auratus, UniProt P55158)
T1 construct: The supernatant comprising the soluble MTP is dialysed against Tris/HCl 150 mM; from tissue; host or cells: golden hamster liver microsomes, deoxycholate-solubilised supernatant, dialysed
T1 sequence (P55158 19-895): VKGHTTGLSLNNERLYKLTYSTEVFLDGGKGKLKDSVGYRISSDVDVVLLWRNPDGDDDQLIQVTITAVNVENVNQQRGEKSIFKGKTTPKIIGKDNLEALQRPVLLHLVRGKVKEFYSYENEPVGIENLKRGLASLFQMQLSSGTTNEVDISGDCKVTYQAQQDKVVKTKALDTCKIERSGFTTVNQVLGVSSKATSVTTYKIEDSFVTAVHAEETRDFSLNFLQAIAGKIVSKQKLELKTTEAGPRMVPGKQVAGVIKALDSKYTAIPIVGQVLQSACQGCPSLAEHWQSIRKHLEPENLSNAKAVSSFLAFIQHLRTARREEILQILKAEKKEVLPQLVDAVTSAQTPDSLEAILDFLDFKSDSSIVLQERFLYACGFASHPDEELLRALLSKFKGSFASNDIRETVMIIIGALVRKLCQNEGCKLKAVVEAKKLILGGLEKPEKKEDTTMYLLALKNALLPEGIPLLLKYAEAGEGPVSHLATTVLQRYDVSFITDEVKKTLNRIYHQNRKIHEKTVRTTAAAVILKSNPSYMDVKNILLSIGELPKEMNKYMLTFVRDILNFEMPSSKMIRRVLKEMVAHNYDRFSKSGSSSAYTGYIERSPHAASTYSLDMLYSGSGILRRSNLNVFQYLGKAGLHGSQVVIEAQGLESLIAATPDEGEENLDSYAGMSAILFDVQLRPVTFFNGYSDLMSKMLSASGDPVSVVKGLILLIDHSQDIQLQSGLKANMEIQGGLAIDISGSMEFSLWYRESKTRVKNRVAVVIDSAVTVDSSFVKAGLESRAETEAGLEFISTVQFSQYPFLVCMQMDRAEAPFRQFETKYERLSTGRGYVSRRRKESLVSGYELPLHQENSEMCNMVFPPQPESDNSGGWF
Experiment: Inhibition of MTP activity: transfer of [3H]-triolein from donor liposomes to biotinylated LDL, SPA
Format: biochemical
Settings: MTP from golden hamster liver; incubation 18-24 hours at 37° C.; read-out: IC50, concentration that allows a 50% inhibition of MTP
Protocol: Analysis of the Inhibition of MTP Activity
The inhibition of the activity of microsomal triglyceride transfer protein (MTP) was tested by using the following operating protocol.
The inhibition of MTP activity with a compound can be quantified by observing the inhibition of the transfer of a labelled triglyceride, from a donor particle to an acceptor particle, in the presence of MTP. The procedure for the preparation of MTP is based on the method by Wetterau and Zilversmit (Biochem. Biophys. Acta (1986) 875, 610). A few grams of golden hamster liver are taken and then rinsed several times in a 250 mM sucrose solution at 0° C. All the following steps proceed at +4° C. A homogenate at a concentration of 50% in 250 mM sucrose is prepared using a Teflon mill and then centrifuged for 10 minutes at 10 000×g at +4° C. The supernatant is then centrifuged at 105 000×g for 75 minutes at +4° C. The supernatant is discarded and the microsomal pellet is taken up in 3 ml (per g of starting liver) of Tris/HCl 150 mM pH 8.0. 1-ml aliquot fractions are stored at −80° C. until the time of use.
After thawing a fraction of microsomes (1 ml), 12 ml of refrigerated Tris/HCl 50 mM, KCl 50 mM, MgCl2 5 mM pH 7.4 buffers and 1.2 ml of deoxycholate (0.54% in water) are added. After incubation for 30 minutes at +4° C. with gentle agitation, the suspension is centrifuged at 105 000×g for 75 minutes. The supernatant comprising the soluble MTP is dialysed against Tris/HCl 150 mM, NaCl 40 mM, EDTA 1 mM, 0.02% sodium azide pH 7.4 buffer (5 times one litre over 2-3 days). The MTP is stored at +4° C., is stable for at least 30 days and is used in unmodified form in the test.
The donor particles (liposomes) are prepared from 208 μl of L-phosphatidylcholine at a concentration of 10 mg/ml in chloroform, and 480 μl of [3H]-triolein at a concentration of 0.5 mCi/ml in toluene. After stirring, the solution is evaporated under nitrogen, taken up in 6 ml of Tris/HCl 50 mM, KCl 50 mM, MgCl2 5 mM pH 7.4 buffer and incubated in an ultrasound bath for 30 minutes at room temperature. The liposomes are stored at +4° C. and sonicated again for 10 minutes before each use.
The acceptor particles are biotinylated low density lipoproteins (LDL-biot). These particles are supplied by the company Amersham.
The reaction mixture is prepared in untreated ½ well white plates (Corning Costar) by addition, in the following order, of: 5 μl of HEPES 50 mM, NaCl 150 mM, BSA 0.1% (w/v), 0.05% sodium azide (w/v), pH 7.4 buffer; 5 μl of liposome; 5 μl of LDL-biot; 5 μl of test products in DMSO; 5 μl of MTP. After incubation for 18-24 hours at 37° C., the reaction is stopped by adding 100 μl of Amersham SPA (Scintillation Proximity Assay) beads coupled to streptavidin, and the radioactivity is counted using a Top Count (Packard) machine at least one hour later. The inhibition of the transfer of the triglycerides with a compound is reflected by a reduction in the transferred radioactivity.
The results are expressed in terms of the IC50, i.e. the concentration that allows a 50% inhibition of MTP.

Row | pIC50 | Structure (SMILES)
1 | 6.80 | Cc1cccc(C(=O)Nc2cccc(OC3CCN(C(=O)Nc4ccccc4OC(F)(F)F)CC3)c2)c1-c1ccc(OC(F)(F)F)cc1 [Example 47, 4-[3-[[[6-methyl-4′-(trifluoromethoxy)[1,1′-biphenyl]-2-yl]carbonyl]amino]phenoxy]-N-(2-(trifluoromethoxy)phenyl]-1-piperi-dinecarboxamide]
2 | 6.79 | C=CCNC(=O)N1CCC(Oc2cccc(NC(=O)c3cccc(C)c3-c3ccc(OC(F)(F)F)cc3)c2)CC1 [Example 32, 4-[3-[[[6-methyl-4′-(trifluoromethoxy)[1,1′-biphenyl]-2-yl]carbonyl]amino]phenoxy]-N-2-propenyl-1-piperidinecarboxamide]
3 | 6.63 | Cc1cccc(C(=O)Nc2cccc(OC3CCN(C(=O)NC(C)(C)C)CC3)c2)c1-c1ccc(OC(F)(F)F)cc1 [Example 28, N-(1,1-dimethylethyl)-4-[3-[[[6-methyl-4′-(trifluoromethoxy)[1,1′-biphenyl]-2-yl]-carbonyl]amino]phenoxy]-1-piperidine-carboxamide]
4 | 6.63 | CC(C)(C)OC(=O)N1CCC(Oc2cccc(NC(=O)c3ccccc3-c3ccc(OC(F)(F)F)cc3)c2)CC1 [Example 67, 1,1-dimethylethyl 4-[3-[[[4′-(trifluorometh-oxy)[1,1′-biphenyl]-2-yl]carbonyl]amino]-phenoxy]-1-piperidinecarboxylate]
5 | 6.54 | Cc1cccc(C(=O)Nc2cccc(OC3CCN(S(=O)(=O)c4cccnc4Cl)CC3)c2)c1-c1ccc(OC(F)(F)F)cc1 [Example 19, N-[3-[[1-[(2-chloro-3-pyridinyl)sulfonyl]-4-piperidinyl]oxy]phenyl]-6-methyl-4′-(trifluoromethoxy)[1,1′-biphenyl]-2-carboxamide]
6 | 6.95 | Cc1cccc(C(=O)Nc2cccc(OC3CCN(C(=O)Nc4ccc(N(C)C)cc4)CC3)c2)c1-c1ccc(OC(F)(F)F)cc1 [Example 51, N-[4-(dimethylamino)phenyl]-4-[3-[[[6-methyl-4′-(trifluoromethoxy)[1,1′-biphenyl]-2-yl]carbonyl]amino]phenoxy]-1-piperidinecarboxamide]
7 | 6.69 | Cc1cccc(C(=O)Nc2cccc(OC3CCN(C(=O)c4ccc([N+](=O)[O-])cc4)CC3)c2)c1-c1ccc(OC(F)(F)F)cc1 [Example 114, 6-methyl-N-[3-[[1-(4-nitrobenzoyl)-4-piperidinyl]oxy]phenyl]-4′-(trifluorometh-oxy)[1,1′-biphenyl]-2-carboxamide]
8 | 6.51 | CCOC(=O)CCC(=O)N1CCC(Oc2cccc(NC(=O)c3ccccc3-c3ccc(OC(F)(F)F)cc3)c2)CC1 [Example 139, ethyl γ-oxo-4-[3-[[[4′-(trifluoromethoxy)-[1,1′-biphenyl]-2-yl]carbonyl]amino]-phenoxy]-1-piperidinebutanoate]
9 | 6.53 | COc1ccc(C(=O)N2CCC(Oc3cccc(NC(=O)c4ccccc4-c4ccc(OC(F)(F)F)cc4)c3)CC2)cc1OC [Example 104]
10 | 6.41 | COCCOc1ccc(-c2ccccc2C(=O)Nc2cccc(OC3CCN(C(=O)OC(C)(C)C)CC3)c2)cc1 [Example 90, 1,1-dimethylethyl 4-[3-[[[4′-(2-methoxy-ethoxy)[1,1-biphenyl]-2-yl]carbonyl]-amino]phenoxy]-1-piperidinecarboxylate]

More lines, now with the values behind:

Row | Structure (SMILES) | pIC50
11 | COc1ccc(CC(=O)N2CCC(Oc3cccc(NC(=O)c4ccccc4-c4ccc(OC(F)(F)F)cc4)c3)CC2)cc1OC [Example 110, N-[3-[[1-[2-(3,4-dimethoxyphenyl)acetyl]-4-piperidinyl]oxy]phenyl]-4′-(trifluoro-methoxy)[1,1′-biphenyl]-2-carboxamide] | 6.33
12 | Cc1ccccc1NC(=O)N1CCC(Oc2cccc(NC(=O)c3cccc(C)c3-c3ccc(OC(F)(F)F)cc3)c2)CC1 [Example 62, N-(2-methylphenyl)-4-[3-[[[6-methyl-4′-(trifluoromethoxy)[1,1′-biphenyl]-2-yl]-carbonyl]amino]phenoxy]-1-piperidine-carboxamide] | 6.93
13 | Cc1cccc(C(=O)Nc2cccc(OC3CCN(Cc4ccncc4)CC3)c2)c1-c1ccc(OC(F)(F)F)cc1 [Example 66, 6-methyl-N-[3-[[1-(4-pyridinylmethyl)-4-piperidinyl]oxy]phenyl]-4′-(trifluorometh-oxy)[1,1′-biphenyl]-2-carboxamide] | 6.72
14 | Cc1cccc(C(=O)Nc2cccc(OC3CCN(C(=O)c4ccccc4)CC3)c2)c1-c1ccc(OC(F)(F)F)cc1 [Example 143, N-[3-[(1-benzoyl-4-piperidinyl)oxy]phenyl]-6-methyl-4′-(trifluoromethoxy)[1,1′-biphenyl]-2-carboxamide] | 6.93
15 | C/C=C/C(=O)N1CCC(Oc2cccc(NC(=O)c3ccccc3-c3ccc(OC(F)(F)F)cc3)c2)CC1 [Example 137, N-[3-[[1-[(2E)-1-oxo-2-butenyl]-4-piperi-dinyl]oxy]phenyl]-4′-(trifluoromethoxy)-[1,1′-biphenyl]-2-carboxamide] | 6.68
16 | Cc1cccc(C(=O)Nc2cccc(OC3CCN(Cc4ccccc4)CC3)c2)c1-c1ccc(OC(F)(F)F)cc1 [Example 58, [1,1′-biphenyl]-6-methyl-N-[3-[[1-(phenyl-methyl)-4-piperidinyl]oxy]phenyl]-4′-(trifluoromethoxy)-2-carboxamide] | 7.13
17 | O=C(Nc1cccc(OC2CCN(C(=O)c3cccnc3)CC2)c1)c1ccccc1-c1ccc(OC(F)(F)F)cc1 [Example 118, N-[3-[[1-(3-pyridinylcarbonyl)-4-piperidin-yl]oxy]phenyl]-4′-(trifluoromethoxy)[1,1′-biphenyl]-2-carboxamide] | 6.70
18 | CC(C)(C)C(=O)N1CCC(Oc2cccc(NC(=O)c3ccccc3-c3ccc(OC(F)(F)F)cc3)c2)CC1 [Example 140, N-[3-[[1-(2,2-dimethyl-1-oxopropyl)-4-piperidinyl]oxy]phenyl]-4′-(trifluorometh-oxy)[1,1′-biphenyl]-2-carboxamide] | 6.75
19 | O=C(Nc1cccc(OC2CCN(C(=O)c3ccc([N+](=O)[O-])cc3)CC2)c1)c1ccccc1-c1ccc(OC(F)(F)F)cc1 [Example 112, N-[3-[[1-(4-nitrobenzoyl)-4-piperidinyl]-oxy]phenyl]-4′-(trifluaromethoxy)[1,1′-biphenyl]-2-carboxamide] | 6.62
